Patent publication US20070122908A1, “Molecular Delivery to Cells Using Aspirin-Related Compounds” (UNIVERSITY OF SOUTH FLORIDA, priority 2005, published 2007)

Tests used:
[1] = test system: B16-F10 cells; experiment: Delivery of calcein to B16-F10 cells with or without electroporation, spectrofluorometric reading of cell lysate; format: cell-based, mouse
Experimental: The effects of salicylic acid (“SA”) on the delivery of calcein to B16-F10 cells using electroporation was studied. Three identical experiments were carried out. […] All cells were exposed to 120 μM calcein. In addition, cells in some samples were exposed to one of three different concentrations of salicyclic acid (1 mM, 5 mM, or 10 mM) with pH values of 6.70, 6.32, and 3.85, respectively. Pulses with one of four different field strengths were also applied (500, 750, 1000, or 1385 V/cm) to certain samples. Salicyclic acid concentration and field strength were experimental variables; however, some cells were not exposed to applied fields or salicyclic acid for comparison/control purposes.
Delivery of calcein using aspirin (acetylsalicylic acid or “ASA”) was studied. […] The same range of pulsing conditions was used and the variables were identical for the sample treatment.
Calcein delivery by electroporation using acetic acid (“AA”) as an effector was studied. The set of 3 replicate experiments included three concentrations of AA, each with a different pH (4.40, 5.36, or 6.42). The pH values of the three solutions of acetic acid were matched to those of ASA for the purpose of determining if AA is the derivative in ASA that enhances the delivery of calcein. The three concentrations of the AA solutions in PBS were similar, which was about 0.15%, and varied slightly in order to establish the desired pH value. In addition, one of three electric field strengths were applied to cells (500, 750. or 1000 V/cm). Some cells were not exposed to applied fields or any concentration of AA for purposes of comparison and control.
B16-F10 mouse melanoma cells (ATCC#:CRL-6475) were obtained and grown in McCoy's Media (Cellgro Mediatech, Inc., Herndon. VA), adjusted to contain 10% fetal bovine serum (Cellgro Mediatech, Inc.) and (25 mg) gentamicin 50 mg/mL (Mediatech, Inc.) and were incubated in 5% CO2 at 37° C. Serum was essential for many reasons. It provided hormonal factors that stimulated cell growth and function. It also contains essential proteins, amino acids, minerals, and lipids. Gentamicin is an antibiotic used as a preventative measure to help reduce microbial growth and contamination.
Cells were prepared for experiments by first harvesting by trypsinization and then washing 3 times by centrifugation. Cells were centrifuged (5810R, Eppendorf, Westbury, N.Y.) at 220× g for 5 minutes at 37° C. and resuspended in approximately 2.5 ml of PBS for each wash. A sample of cells was then diluted in 0.9% sodium chloride (APP, Schaumburg, Ill.) and 0.4% trypan blue stain (Cellgro Mediatech, Inc.). Trypan blue is an indicator in which the membranes of non-viable cells are penetrated and can be distinguished from the viable cells. Using a hemacytometer (Hausser Scientific, Horsham, Pa.), the viable and nonviable cells were counted. The number of cells per milliliter was computed by multiplying the number of cells counted per square millimeter×the dilution (when used)×10,000 (conversion factor).
Experiments were conducted using 48-well polystyrene tissue culture plates (BD Falcon. Franklin Lakes, N.J.). Each well held approximately 1.4 ml of liquid with a surface area of 0.75 cm^2. The depth and diameter of each well was 18 mm and 10 mm, respectively.
Under aseptic conditions, 150μl of the sterile gelatin solution was added to each well and let stand for 1 hour. The gelatin was then aspirated from each of the wells and air dried for 5 minutes. 500μl of McCoy's Media was added to the treated wells in addition to 7.5×10^4 viable cells and incubated at 37° C. for 18 hours before treatment.
The electrode shown in FIG. 2 was specially designed for all experimentation in these studies and was similar to the design mentioned above. The electrode consisted of 6 stainless steel electrodes, equally spaced at 60° intervals around a 0.7 cm diameter circle.

[2] = test system: B16-F10 cells; conditions: mouse, pH 4.4
Experimental: The trypan blue test was used to determine membrane integrity. Trypan blue dye will only penetrate into cells that have porous membranes. […] The protocol used was similar to the methods described for the delivery of calcein. After one hour of exposure at 37° the cells were washed three times with 500 μl aliquots of PBS. Liquid from the last wash was carefully aspirated, and then filled with 500μl of growth media.
For the purpose of this study, optimal testing conditions were used to treat B16-F10 cells to conclude the extent of reversible permeation.
Due to the large surface area of the wells, the cells were physically counted by observing 7 out of 21 fields of view along the horizontal diameter of each well at a magnification of 400× (see FIG. 5). The recovery of the membranes after exposure to each treating condition was expressed as a percentage of live cells remaining after each hour.
In order to distinguish the viable cells from the dead, a 0.4% trypan blue solution in PBS was used. 150 μl of the solution was added to each well for 1 minute, and then the cells were counted using the described method. Each test condition was studied at 1 hour intervals ranging from 1 hour to 4 hours. In addition, membrane recovery was examined 24 hours post treatment.

SMILES: CC(=O)O [AA, acetic acid]
- fluorescence magnitude compared to samples not exposed to AA ([1]; AA about 0.15% in PBS, pH 5.36 or 6.42, with or without pulses): failed to show a significant increase
- fluorescent data compared to AA alone (no pulses) ([1]; AA lowest pH solution (pH 4.40) in combination with electric fields): even higher
- mean fluorescence magnitude ([1]; AA pH 4.40, 500 V/cm): 12.77
- increase in fluorescence magnitude vs samples not exposed to AA at same field ([1]; AA pH 4.40, 500 V/cm, p<0.0001): 3 fold
- increase in fluorescence magnitude vs samples not exposed to AA at same field ([1]; AA pH 4.40, 750 V/cm, p=0.0002): 2.25 fold
- increase in fluorescence magnitude vs samples not exposed to AA at same field ([1]; AA pH 4.40, 1000 V/cm, p<0.0001): 3.5 fold
- increase in mean fluorescence vs control (no AA or pulses) ([1]; AA pH 4.40 alone, no pulses): 8.2 fold
- mean fluorescence magnitude ([1]; AA pH 4.40 alone, no pulses): 1.04
- decline in the number of cells with intact membranes ([2]; 1 h): 17%
- cells that excluded trypan blue dye ([2]; 24 h): 86%
- cells with intact membranes ([2]; 24 h): 90%
- average membrane integrity [2]: 80-95%

SMILES: O=C(O)c1ccccc1O [SA, salicylic acid]
- calcein delivery compared to samples exposed to calcein alone ([1]; 1, 5 or 10 mM SA (pH 6.70, 6.32, 3.85), 120 μM calcein, no applied electric field): did not augment the delivery
- fluorescent magnitude compared to samples treated with calcein and pulses (no salicylic acid) ([1]; 1, 5 or 10 mM SA, 120 μM calcein, electrical pulses 500-1385 V/cm): not significantly higher

SMILES: CC(=O)Oc1ccccc1C(=O)O [ASA, acetylsalicylic acid]
- fluorescence magnitude compared to calcein alone (no ASA) ([1]; 1 mM or 5 mM ASA alone (pH 6.39, 5.40), no pulses): did not result in a significant increase
- increase in fluorescence magnitude relative to calcein at same field (no ASA) ([1]; 10 mM ASA, 500 V/cm, p<0.0001): 3.7 fold
- increase in fluorescence magnitude relative to calcein at same field (no ASA) ([1]; 10 mM ASA, 750 V/cm, p 0.0011): 3.82 fold
- increase in fluorescence magnitude relative to calcein at same field (no ASA) ([1]; 10 mM ASA, 1000 V/cm, p 0.0014): 3.57 fold
- increase in fluorescence magnitude relative to calcein at same field (no ASA) ([1]; 10 mM ASA, 1385 V/cm, p 0.0066): 3.18 fold
- increase in internalized calcein vs control (calcein, no ASA or pulses) ([1]; 10 mM ASA, no pulses, p<0.0001): 5 fold
- mean fluorescence magnitude compared to samples exposed to electric fields alone (no ASA) ([1]; 1 and 5 mM ASA, with electric fields): not significantly different
- average fluorescent magnitude ([1]; calcein in 10 mM ASA (pH 4.40), no pulses): 4.28 (SEM=0.63)
